Numbers after ± are expanded uncertainties.
Assay: mn = molality of the nth substance listed, in mol/kg
Details: for surface tension liquid-gas: Ring tensiometer; for electrical conductivity: 100 kPa, Liquid, Alternating current cell with electrodes

Compound: CCCCCCCC[NH+](CCO)CC(C)O.[Cl-] (stereo not given) + O
- surface tension liquid-gas (303.15 K, m1 = 1.867e-05): 53.53 ± 0.7 mN/m
- surface tension liquid-gas (303.15 K, m1 = 3.733e-05): 47.58 ± 0.63 mN/m
- surface tension liquid-gas (303.15 K, m1 = 9.334e-05): 40.08 ± 0.54 mN/m
- surface tension liquid-gas (303.15 K, m1 = 0.0001867): 34.17 ± 0.48 mN/m
- surface tension liquid-gas (303.15 K, m1 = 0.00028): 31.17 ± 0.45 mN/m
- surface tension liquid-gas (303.15 K, m1 = 0.0003472): 29.47 ± 0.43 mN/m
- surface tension liquid-gas (303.15 K, m1 = 0.000448): 29.31 ± 0.43 mN/m
- surface tension liquid-gas (303.15 K, m1 = 0.0009334): 28.79 ± 0.43 mN/m
- surface tension liquid-gas (303.15 K, m1 = 0.001867): 28.54 ± 0.42 mN/m
- surface tension liquid-gas (303.15 K, m1 = 0.0028): 28.22 ± 0.42 mN/m
- surface tension liquid-gas (303.15 K, m1 = 0.003733): 28.02 ± 0.42 mN/m
- electrical conductivity (303.15 K, m1 = 1.87e-05): 0.00091 ± 5.1e-05 S/m
- electrical conductivity (303.15 K, m1 = 3.73e-05): 0.00101 ± 5.6e-05 S/m
- electrical conductivity (303.15 K, m1 = 5.6e-05): 0.0011 ± 6.1e-05 S/m
- electrical conductivity (303.15 K, m1 = 7.47e-05): 0.0012 ± 6.6e-05 S/m
- electrical conductivity (303.15 K, m1 = 9.33e-05): 0.00129 ± 8.2e-05 S/m
- electrical conductivity (303.15 K, m1 = 0.000112): 0.00139 ± 8e-05 S/m
- electrical conductivity (303.15 K, m1 = 0.0001307): 0.00149 ± 8.3e-05 S/m
- electrical conductivity (303.15 K, m1 = 0.0001493): 0.00158 ± 8.8e-05 S/m
- electrical conductivity (303.15 K, m1 = 0.000168): 0.00168 ± 9.3e-05 S/m
- electrical conductivity (303.15 K, m1 = 0.0001867): 0.00177 ± 9.8e-05 S/m
- electrical conductivity (303.15 K, m1 = 0.0002053): 0.00187 ± 0.00029 S/m
- electrical conductivity (303.15 K, m1 = 0.000224): 0.00197 ± 0.00011 S/m
- electrical conductivity (303.15 K, m1 = 0.0002427): 0.00206 ± 0.00012 S/m
- electrical conductivity (303.15 K, m1 = 0.0002614): 0.00216 ± 0.00012 S/m
- electrical conductivity (303.15 K, m1 = 0.00028): 0.00225 ± 0.00015 S/m
- electrical conductivity (303.15 K, m1 = 0.0002987): 0.00235 ± 0.00033 S/m
- electrical conductivity (303.15 K, m1 = 0.0003174): 0.00245 ± 0.00014 S/m
- electrical conductivity (303.15 K, m1 = 0.000336): 0.00254 ± 0.00014 S/m
- electrical conductivity (303.15 K, m1 = 0.0003547): 0.00264 ± 0.00017 S/m
- electrical conductivity (303.15 K, m1 = 0.0003734): 0.00273 ± 0.00015 S/m
- electrical conductivity (303.15 K, m1 = 0.000392): 0.00283 ± 0.00017 S/m
- electrical conductivity (303.15 K, m1 = 0.0004166): 0.00292 ± 0.0016 S/m
- electrical conductivity (303.15 K, m1 = 0.0004412): 0.00302 ± 0.00017 S/m
- electrical conductivity (303.15 K, m1 = 0.0004658): 0.00311 ± 0.00017 S/m
- electrical conductivity (303.15 K, m1 = 0.0004905): 0.00321 ± 0.00018 S/m
- electrical conductivity (303.15 K, m1 = 0.0005151): 0.0033 ± 0.00021 S/m
- electrical conductivity (303.15 K, m1 = 0.0005397): 0.0034 ± 0.00019 S/m
- electrical conductivity (303.15 K, m1 = 0.0005643): 0.00349 ± 0.00019 S/m
- electrical conductivity (303.15 K, m1 = 0.0005889): 0.00359 ± 0.0002 S/m
- electrical conductivity (303.15 K, m1 = 0.0006135): 0.00368 ± 0.0002 S/m
- electrical conductivity (303.15 K, m1 = 0.0006381): 0.00378 ± 0.00021 S/m
- electrical conductivity (303.15 K, m1 = 0.0006627): 0.00387 ± 0.00021 S/m
- electrical conductivity (303.15 K, m1 = 0.0006873): 0.00397 ± 0.00022 S/m
- electrical conductivity (303.15 K, m1 = 0.0007119): 0.00406 ± 0.00022 S/m
- electrical conductivity (303.15 K, m1 = 0.0007365): 0.00416 ± 0.00023 S/m
- electrical conductivity (303.15 K, m1 = 0.0007611): 0.00425 ± 0.00023 S/m
- electrical conductivity (303.15 K, m1 = 0.0007857): 0.00435 ± 0.00024 S/m
- electrical conductivity (303.15 K, m1 = 0.0008104): 0.00444 ± 0.00024 S/m
- electrical conductivity (303.15 K, m1 = 0.000835): 0.00454 ± 0.00025 S/m
- electrical conductivity (303.15 K, m1 = 0.0008596): 0.00463 ± 0.00026 S/m
- electrical conductivity (303.15 K, m1 = 0.0008842): 0.00473 ± 0.00026 S/m
- electrical conductivity (303.15 K, m1 = 0.0009088): 0.00482 ± 0.00027 S/m
- electrical conductivity (303.15 K, m1 = 0.0009334): 0.00492 ± 0.00027 S/m
- surface tension liquid-gas (308.15 K, m1 = 1.867e-05): 51.25 ± 0.67 mN/m
- surface tension liquid-gas (308.15 K, m1 = 3.733e-05): 45.75 ± 0.61 mN/m
- surface tension liquid-gas (308.15 K, m1 = 9.334e-05): 38.42 ± 0.53 mN/m
- surface tension liquid-gas (308.15 K, m1 = 0.0001867): 32.93 ± 0.47 mN/m
- surface tension liquid-gas (308.15 K, m1 = 0.0002949): 29.72 ± 0.44 mN/m
- surface tension liquid-gas (308.15 K, m1 = 0.0003472): 28.63 ± 0.43 mN/m
- surface tension liquid-gas (308.15 K, m1 = 0.0003808): 28.46 ± 0.42 mN/m
- surface tension liquid-gas (308.15 K, m1 = 0.0009334): 27.95 ± 0.42 mN/m
- surface tension liquid-gas (308.15 K, m1 = 0.001867): 27.78 ± 0.42 mN/m
- surface tension liquid-gas (308.15 K, m1 = 0.0028): 27.44 ± 0.41 mN/m
- surface tension liquid-gas (308.15 K, m1 = 0.003733): 27.36 ± 0.41 mN/m
- electrical conductivity (308.15 K, m1 = 1.87e-05): 0.00111 ± 6.2e-05 S/m
- electrical conductivity (308.15 K, m1 = 4.28e-05): 0.00126 ± 7.1e-05 S/m
- electrical conductivity (308.15 K, m1 = 6.7e-05): 0.00141 ± 8e-05 S/m
- electrical conductivity (308.15 K, m1 = 9.11e-05): 0.00156 ± 9e-05 S/m
- electrical conductivity (308.15 K, m1 = 0.0001152): 0.00171 ± 9.9e-05 S/m
- electrical conductivity (308.15 K, m1 = 0.0001394): 0.00186 ± 0.00011 S/m
- electrical conductivity (308.15 K, m1 = 0.0001635): 0.00201 ± 0.00012 S/m
- electrical conductivity (308.15 K, m1 = 0.0001877): 0.00216 ± 0.00013 S/m
- electrical conductivity (308.15 K, m1 = 0.0002118): 0.00231 ± 0.00014 S/m
- electrical conductivity (308.15 K, m1 = 0.000236): 0.00246 ± 0.00015 S/m
- electrical conductivity (308.15 K, m1 = 0.0002601): 0.00261 ± 0.00016 S/m
- electrical conductivity (308.15 K, m1 = 0.0002842): 0.00276 ± 0.00017 S/m
- electrical conductivity (308.15 K, m1 = 0.0003084): 0.00291 ± 0.00018 S/m
- electrical conductivity (308.15 K, m1 = 0.0003325): 0.00306 ± 0.00019 S/m
- electrical conductivity (308.15 K, m1 = 0.0003567): 0.00321 ± 0.0002 S/m
- electrical conductivity (308.15 K, m1 = 0.0003808): 0.00336 ± 0.00021 S/m
- electrical conductivity (308.15 K, m1 = 0.0004099): 0.00348 ± 0.00022 S/m
- electrical conductivity (308.15 K, m1 = 0.000439): 0.0036 ± 0.00023 S/m
- electrical conductivity (308.15 K, m1 = 0.0004681): 0.00373 ± 0.00023 S/m
- electrical conductivity (308.15 K, m1 = 0.0004972): 0.00385 ± 0.00024 S/m
- electrical conductivity (308.15 K, m1 = 0.0005262): 0.00397 ± 0.00025 S/m
- electrical conductivity (308.15 K, m1 = 0.0005553): 0.0041 ± 0.00026 S/m
- electrical conductivity (308.15 K, m1 = 0.0005844): 0.00422 ± 0.00026 S/m
- electrical conductivity (308.15 K, m1 = 0.0006135): 0.00434 ± 0.00026 S/m
- electrical conductivity (308.15 K, m1 = 0.0006426): 0.00447 ± 0.00027 S/m
- electrical conductivity (308.15 K, m1 = 0.0006716): 0.00459 ± 0.00028 S/m
- electrical conductivity (308.15 K, m1 = 0.0007007): 0.00471 ± 0.00028 S/m
- electrical conductivity (308.15 K, m1 = 0.0007298): 0.00483 ± 0.00029 S/m
- electrical conductivity (308.15 K, m1 = 0.0007589): 0.00496 ± 0.0003 S/m
- electrical conductivity (308.15 K, m1 = 0.000788): 0.00508 ± 0.0003 S/m
- electrical conductivity (308.15 K, m1 = 0.0008171): 0.0052 ± 0.00031 S/m
- electrical conductivity (308.15 K, m1 = 0.0008461): 0.00533 ± 0.00031 S/m
- electrical conductivity (308.15 K, m1 = 0.0008752): 0.00545 ± 0.00032 S/m
- electrical conductivity (308.15 K, m1 = 0.0009043): 0.00557 ± 0.00032 S/m
- electrical conductivity (308.15 K, m1 = 0.0009334): 0.0057 ± 0.00033 S/m

— the NIST ThermoML archive (doi:10.1021/acs.jced.7b00347)
